{"source": "ChEMBL document CHEMBL3885881", "about": "“DrugMatrix”", "species": "Rattus norvegicus", "experiment": "DrugMatrix - Regimen: Daily Repeat", "type": "toxicity, organism-based, Sprague-Dawley", "parameters": "regimen Daily Repeat, gender Male, age 6-8 weeks", "settings": "in vivo, po, route oral GAVAGE, vehicle .5 % CMC; for ABSOLUTE BASOPHIL / ABSOLUTE EOSINOPHIL / ABSOLUTE LYMPHOCYTE / ABSOLUTE MONOCYTE / ABSOLUTE SEGMENTED NEUTROPHIL / BASOPHIL / EOSINOPHIL / ERYTHROCYTE COUNT / HEMATOCRIT / HEMOGLOBIN / LEUKOCYTE COUNT / LYMPHOCYTE / MEAN CORPUSCULAR HEMOGLOBIN / MEAN CORPUSCULAR HEMOGLOBIN CONCENTRATION / MEAN CORPUSCULAR VOLUME / MONOCYTE / NEUTROPHIL / NUCLEATED RED BLOOD CELLS / PLATELET COUNT: tissue Blood", "key": {"[1]": {"settings": "[…], 72 h, dose 2.1 mg/Kg, dose level Low, time 3 day"}, "[2]": {"settings": "[…], 72 h, tissue Plasma, dose 2.1 mg/Kg, dose level Low, time 3 day"}, "[3]": {"settings": "[…], 120 h, dose 2.1 mg/Kg, dose level Low, time 5 day"}, "[4]": {"settings": "[…], 120 h, tissue Plasma, dose 2.1 mg/Kg, dose level Low, time 5 day"}}, "data": [{"smiles": "C=C1CC[C@H](O)C/C1=C/C=C1\\CCC[C@]2(C)[C@@H]([C@H](C)CCCC(C)C)CC[C@@H]12", "note": "[CHOLECALCIFEROL]", "values": [{"measurement": "URIC ACID", "setting": "8 mg/kg, 120 h, tissue Plasma, dose level High, time 5 day", "result": 2.97, "unit": "mg/dL"}, {"measurement": "ABSOLUTE BASOPHIL", "setting": "[1]", "result": 0, "unit": "CELLS/uL"}, {"measurement": "ABSOLUTE EOSINOPHIL", "setting": "[1]", "result": 0, "unit": "CELLS/uL"}, {"measurement": "ABSOLUTE LYMPHOCYTE", "setting": "[1]", "result": 13778.67, "unit": "CELLS/uL"}, {"measurement": "ABSOLUTE MONOCYTE", "setting": "[1]", "result": 303, "unit": "CELLS/uL"}, {"measurement": "ABSOLUTE SEGMENTED NEUTROPHIL", "setting": "[1]", "result": 1018.33, "unit": "CELLS/uL"}, {"measurement": "BASOPHIL", "setting": "[1]", "result": 0, "unit": "%"}, {"measurement": "EOSINOPHIL", "setting": "[1]", "result": 0, "unit": "%"}, {"measurement": "ERYTHROCYTE COUNT", "setting": "[1]", "result": 5.26, "unit": "x10E6/uL"}, {"measurement": "HEMATOCRIT", "setting": "[1]", "result": 33.23, "unit": "%"}, {"measurement": "HEMOGLOBIN", "setting": "[1]", "result": 13.23, "unit": "G/DL"}, {"measurement": "LEUKOCYTE COUNT", "setting": "[1]", "result": 15.1, "unit": "x10E3/uL"}, {"measurement": "LYMPHOCYTE", "setting": "[1]", "result": 91.33, "unit": "%"}, {"measurement": "MEAN CORPUSCULAR HEMOGLOBIN", "setting": "[1]", "result": 25.17, "unit": "pg"}, {"measurement": "MEAN CORPUSCULAR HEMOGLOBIN CONCENTRATION", "setting": "[1]", "result": 39.83, "unit": "G/DL"}, {"measurement": "MEAN CORPUSCULAR VOLUME", "setting": "[1]", "result": 63.27, "unit": "fL"}, {"measurement": "MONOCYTE", "setting": "[1]", "result": 2, "unit": "%"}, {"measurement": "NEUTROPHIL", "setting": "[1]", "result": 6.67, "unit": "%"}, {"measurement": "NUCLEATED RED BLOOD CELLS", "setting": "[1]", "result": "0.33 /100WBC"}, {"measurement": "PLATELET COUNT", "setting": "[1]", "result": 1338.67, "unit": "x10E3/uL"}, {"measurement": "ALANINE AMINOTRANSFERASE", "setting": "[2]", "result": 64.33, "unit": "u/L"}, {"measurement": "ALBUMIN", "setting": "[2]", "result": 4.5, "unit": "G/DL"}, {"measurement": "ALKALINE PHOSPHATASE", "setting": "[2]", "result": 325, "unit": "u/L"}, {"measurement": "ASPARTATE AMINOTRANSFERASE", "setting": "[2]", "result": 90.33, "unit": "u/L"}, {"measurement": "BLOOD UREA NITROGEN", "setting": "[2]", "result": 18, "unit": "mg/dL"}, {"measurement": "CARBON DIOXIDE", "setting": "[2]", "result": 24, "unit": "mmol/L"}, {"measurement": "CHLORIDE", "setting": "[2]", "result": 102.33, "unit": "MEQ/L"}, {"measurement": "CHOLESTEROL", "setting": "[2]", "result": 85.67, "unit": "mg/dL"}, {"measurement": "CREATINE PHOSPHOKINASE", "setting": "[2]", "result": 170.67, "unit": "u/L"}, {"measurement": "CREATININE", "setting": "[2]", "result": 0.22, "unit": "mg/dL"}, {"measurement": "GLUCOSE", "setting": "[2]", "result": 154.33, "unit": "mg/dL"}, {"measurement": "LACTATE DEHYDROGENASE", "setting": "[2]", "result": 246.33, "unit": "u/L"}, {"measurement": "LIPASE", "setting": "[2]", "result": 9.33, "unit": "u/L"}, {"measurement": "PHOSPHORUS", "setting": "[2]", "result": 15.17, "unit": "mg/dL"}, {"measurement": "POTASSIUM", "setting": "[2]", "result": 7.26, "unit": "MEQ/L"}, {"measurement": "SODIUM", "setting": "[2]", "result": 149.17, "unit": "MEQ/L"}, {"measurement": "TOTAL BILIRUBIN", "setting": "[2]", "result": 0.33, "unit": "mg/dL"}, {"measurement": "TOTAL PROTEIN", "setting": "[2]", "result": 6.3, "unit": "G/DL"}, {"measurement": "URIC ACID", "setting": "[2]", "result": 1.63, "unit": "mg/dL"}, {"measurement": "ABSOLUTE BASOPHIL", "setting": "[3]", "result": 0, "unit": "CELLS/uL"}, {"measurement": "ABSOLUTE EOSINOPHIL", "setting": "[3]", "result": 46.67, "unit": "CELLS/uL"}, {"measurement": "ABSOLUTE LYMPHOCYTE", "setting": "[3]", "result": 13112, "unit": "CELLS/uL"}, {"measurement": "ABSOLUTE MONOCYTE", "setting": "[3]", "result": 47.33, "unit": "CELLS/uL"}, {"measurement": "ABSOLUTE SEGMENTED NEUTROPHIL", "setting": "[3]", "result": 1427.33, "unit": "CELLS/uL"}, {"measurement": "BASOPHIL", "setting": "[3]", "result": 0, "unit": "%"}, {"measurement": "EOSINOPHIL", "setting": "[3]", "result": 0.33, "unit": "%"}, {"measurement": "ERYTHROCYTE COUNT", "setting": "[3]", "result": 5.69, "unit": "x10E6/uL"}, {"measurement": "HEMATOCRIT", "setting": "[3]", "result": 37.6, "unit": "%"}, {"measurement": "HEMOGLOBIN", "setting": "[3]", "result": 14.5, "unit": "G/DL"}, {"measurement": "LEUKOCYTE COUNT", "setting": "[3]", "result": 14.63, "unit": "x10E3/uL"}, {"measurement": "LYMPHOCYTE", "setting": "[3]", "result": 89.67, "unit": "%"}, {"measurement": "MEAN CORPUSCULAR HEMOGLOBIN", "setting": "[3]", "result": 25.53, "unit": "pg"}, {"measurement": "MEAN CORPUSCULAR HEMOGLOBIN CONCENTRATION", "setting": "[3]", "result": 38.57, "unit": "G/DL"}, {"measurement": "MEAN CORPUSCULAR VOLUME", "setting": "[3]", "result": 66.17, "unit": "fL"}, {"measurement": "MONOCYTE", "setting": "[3]", "result": 0.33, "unit": "%"}, {"measurement": "NEUTROPHIL", "setting": "[3]", "result": 9.67, "unit": "%"}, {"measurement": "NUCLEATED RED BLOOD CELLS", "setting": "[3]", "result": "0.33 /100WBC"}, {"measurement": "PLATELET COUNT", "setting": "[3]", "result": 1071, "unit": "x10E3/uL"}, {"measurement": "ALANINE AMINOTRANSFERASE", "setting": "[4]", "result": 53, "unit": "u/L"}, {"measurement": "ALBUMIN", "setting": "[4]", "result": 4.6, "unit": "G/DL"}, {"measurement": "ALKALINE PHOSPHATASE", "setting": "[4]", "result": 301.33, "unit": "u/L"}, {"measurement": "ASPARTATE AMINOTRANSFERASE", "setting": "[4]", "result": 84, "unit": "u/L"}, {"measurement": "BLOOD UREA NITROGEN", "setting": "[4]", "result": 19.67, "unit": "mg/dL"}, {"measurement": "CARBON DIOXIDE", "setting": "[4]", "result": 31.67, "unit": "mmol/L"}, {"measurement": "CHLORIDE", "setting": "[4]", "result": 97.33, "unit": "MEQ/L"}, {"measurement": "CHOLESTEROL", "setting": "[4]", "result": 72.33, "unit": "mg/dL"}, {"measurement": "CREATINE PHOSPHOKINASE", "setting": "[4]", "result": 267.33, "unit": "u/L"}, {"measurement": "CREATININE", "setting": "[4]", "result": 0.24, "unit": "mg/dL"}, {"measurement": "GLUCOSE", "setting": "[4]", "result": 143.33, "unit": "mg/dL"}, {"measurement": "LACTATE DEHYDROGENASE", "setting": "[4]", "result": 287, "unit": "u/L"}, {"measurement": "LIPASE", "setting": "[4]", "result": 8.67, "unit": "u/L"}, {"measurement": "PHOSPHORUS", "setting": "[4]", "result": 11.33, "unit": "mg/dL"}, {"measurement": "POTASSIUM", "setting": "[4]", "result": 6.64, "unit": "MEQ/L"}, {"measurement": "SODIUM", "setting": "[4]", "result": 141.97, "unit": "MEQ/L"}, {"measurement": "TOTAL BILIRUBIN", "setting": "[4]", "result": 0.2, "unit": "mg/dL"}, {"measurement": "URIC ACID", "setting": "[4]", "result": 1.67, "unit": "mg/dL"}]}]}
